ChEMBL document CHEMBL1147702, “N-Benzylbenzamides: a new class of potent tyrosinase inhibitors” (Bioorg Med Chem Lett, 2006)

Biological target: T1, Tyrosinase (Agaricus bisporus, UniProt O42713)
T1 sequence (O42713 whole entry): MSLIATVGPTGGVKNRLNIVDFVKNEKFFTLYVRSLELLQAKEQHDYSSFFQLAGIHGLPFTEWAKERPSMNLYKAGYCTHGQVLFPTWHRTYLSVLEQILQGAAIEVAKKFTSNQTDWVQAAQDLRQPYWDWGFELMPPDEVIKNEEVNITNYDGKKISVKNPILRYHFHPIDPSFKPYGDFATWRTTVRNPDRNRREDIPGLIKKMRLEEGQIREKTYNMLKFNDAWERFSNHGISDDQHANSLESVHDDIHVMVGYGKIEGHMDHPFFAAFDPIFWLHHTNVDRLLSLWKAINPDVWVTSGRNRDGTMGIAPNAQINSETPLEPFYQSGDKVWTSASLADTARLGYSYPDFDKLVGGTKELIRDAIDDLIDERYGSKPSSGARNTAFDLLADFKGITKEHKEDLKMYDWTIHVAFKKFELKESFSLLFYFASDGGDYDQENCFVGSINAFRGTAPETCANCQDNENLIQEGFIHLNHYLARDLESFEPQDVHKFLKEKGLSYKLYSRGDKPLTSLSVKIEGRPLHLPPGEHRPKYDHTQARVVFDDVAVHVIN
Description: Inhibition of mushroom tyrosinase

| IC50 | Ki | Structure (SMILES) |
| --- | --- | --- |
| 1820 µM | – | O=C(NCc1ccc(O)cc1)c1ccc(O)cc1O |
| 29 µM | – | O=C(NCc1ccc(O)cc1O)c1ccc(O)cc1O |
| 550 µM | – | O=C(NCc1cc(O)c(O)c(O)c1)c1ccc(O)cc1O |
| 705 µM | – | O=C(NCc1cc(O)c(O)c(O)c1)c1cc(O)cc(O)c1 |
| 1180 µM | – | O=C(NCc1ccc(O)cc1)c1cc(O)c(O)c(O)c1 |
| 11 µM | – | O=C(NCc1ccc(O)cc1O)c1ccc(O)c(O)c1 |
| 555 µM | – | O=C(NCc1cc(O)c(O)c(O)c1)c1cc(O)c(O)c(O)c1 |
| 17 µM | – | O=C(NCc1ccc(O)cc1O)c1cc(O)c(O)c(O)c1 |
| 1660 µM | – | O=C(NCc1ccccc1)c1ccc(O)cc1O |
| 1990 µM | – | O=C(NCc1ccccc1)c1ccccc1 |
| > 2000 µM | – | O=C(NCc1ccc(O)cc1)c1ccc(O)c(O)c1 |
| 280 µM | – | O=C(NCc1cc(O)c(O)c(O)c1)c1ccc(O)c(O)c1 |
| 780 µM | – | O=C(NCc1ccccc1)c1cc(O)c(O)c(O)c1 |
| > 2000 µM | – | O=C(NCc1ccccc1)c1ccc(O)c(O)c1 |
| 700 µM | – | O=C(NCc1ccccc1)c1cc(O)cc(O)c1 |
| 2.2 µM | 1.3 µM | O=C(NCc1ccc(O)cc1O)c1cc(O)cc(O)c1 |
| 710 µM | – | O=C(NCc1ccc(O)cc1)c1cc(O)cc(O)c1 |
